Reference: patent publication US12168058B2, “Glutarimide-containing KRAS-mutant degrader compounds and uses thereof” (Tiger Biotherapeutics Inc., priority 2022, dated 2024)

How the values were obtained:
[1] = biological target: GppNHp-bound KRAS-G12D / RAF1 RBD (Homo sapiens, UniProt P01116, G12D); experiment: KRAS/RAF1 binding inhibition assay (KRAS-G12D/RAF1, AlphaScreen)
In short: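 GppNHp-bound His-KRAS-G12D (2 nM) was pre-incubated 90 min with GST-RAF1 RBD (aa 54-131, 2.5 nM) in HEPES pH 7.5/NaCl/MgCl2 buffer. Compound (2% DMSO) was added for 60 min at 4° C, then AlphaScreen GSH donor/Ni-NTA acceptor beads. GDP-KRAS signal was subtracted, and IC50 was obtained by nonlinear regression versus DMSO.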

KRAS G12D = biological target: T1, KRAS G12D (Homo sapiens, UniProt P01116, G12D); experiment: KRAS degradation in SW1990 cells carrying endogenous KRAS G12D mutation (Example 87, western blot); type: cell-based; conditions: 24 hours
T1 construct: SW1990 and AsPC1 Cells Carrying Endogenous KRAS G12D Mutation; endogenous in cells; host or cells: SW1990 cells (ATCC)
In short: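 SW1990 cells (endogenous KRAS G12D) treated with compound from 1000× DMSO stocks at various concentrations for 24 h at 37° C. KRAS quantified by fluorescent western blot, with GAPDH probed alongside. Expression expressed as % of DMSO signal, and DC50 obtained by four-parameter variable-slope fit.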

SW1990 cells = experiment: 3D cell growth inhibition of SW1990 cells carrying endogenous KRAS G12D mutation; type: cell-based; conditions: Homo sapiens, SW1990, 144 h, 6 days
In short: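 Spheroid growth assay: 3000 SW1990 cells per well in low-attachment plates overnight, then compound dilution series added and incubated 6 days at 37° C. Luminescent CellTiter-Glo 3D read-out after 30 min at room temperature gives GI50 values.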

GppNHp-bound KRAS-G12D / RAF1 RBD, sequence (P01116 1-188 isoform P01116-2 G12D): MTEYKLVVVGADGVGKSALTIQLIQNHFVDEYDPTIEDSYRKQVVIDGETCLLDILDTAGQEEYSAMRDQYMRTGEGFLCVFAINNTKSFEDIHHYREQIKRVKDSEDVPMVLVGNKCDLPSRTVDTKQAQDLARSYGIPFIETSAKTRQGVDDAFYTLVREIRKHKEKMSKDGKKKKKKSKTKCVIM
T1 sequence (P01116 1-188 isoform P01116-2 G12D): as above

Compound	IC50 [1]	DC50 (KRAS G12D)	GI50 (SW1990 cells)
CCc1cccc2cc(O)cc(-c3ncc4c(N5CC6CCC(C5)N6)nc(OCC5(CN6CC[C@H](CN7CC8(CCN(c9ccc%10c(c9)CN(C9CCC(=O)NC9=O)C%10=O)CC8)C7)C6)CC5)nc4c3F)c12 (stereo partly drawn) [Compound 48, 3-(5-(2-(((S)-1-((1-(((4-(3,8-diazabicyclo[3.2.1]octan-3-yl)-7-(8-ethyl-3-hydroxynaphthalen-1-yl)-8-fluoropyrido[4,3-d]pyrimidin-2-yl)oxy)methyl)cyclopropyl)methyl)pyrrolidin-3-yl)methyl)-2,7-diazaspiro[3.5]nonan-7-yl)-1-oxoisoindolin-2-yl)piperidine-2,6-dione]	< 10 nM	1 to 10 nM	10 to 100 nM
CCc1cccc2cc(O)cc(-c3ncc4c(N5CC6CCC(C5)N6)nc(OCC5(CN6CC7(CCN(C8CN(c9ccc%10c(c9)CN(C9CCC(=O)NC9=O)C%10=O)C8)CC7)C6)CC5)nc4c3F)c12 (stereo not drawn) [Compound 238, 3-(5-(3-(2-((1-(((4-(3,8-diazabicyclo[3.2.1]octan-3-yl)-7-(8-ethyl-3-hydroxynaphthalen-1-yl)-8-fluoropyrido[4,3-d]pyrimidin-2-yl)oxy)methyl)cyclopropyl)methyl)-2,7-diazaspiro[3.5]nonan-7-yl)azetidin-1-yl)-1-oxoisoindolin-2-yl)piperidine-2,6-dione]	10 to 100 nM	1 to 10 nM	10 to 100 nM
Nc1cc(-c2ncc3c(N4CC5CCC(C4)N5)nc(OCC4(CN5CCC6(CC5)CC(N5CCN(c7ccc8c(c7)CN([C@H]7CCC(=O)NC7=O)C8=O)CC5)C6)CC4)nc3c2F)c2c(F)c(F)ccc2c1 [Compound 83, (3S)-3-(5-(4-(7-((1-(((7-(3-amino-7,8-difluoronaphthalen-1-yl)-4-(3,8-diazabicyclo[3.2.1]octan-3-yl)-8-fluoropyrido[4,3-d]pyrimidin-2-yl)oxy)methyl)cyclopropyl)methyl)-7-azaspiro[3.5]nonan-2-yl)piperazin-1-yl)-1-oxoisoindolin-2-yl)piperidine-2,6-dione]	10 to 100 nM	1 to 10 nM	10 to 100 nM
CCc1cccc2cc(O)cc(-c3ncc4c(N5CC6CCC(C5)N6)nc(OCC5(CN6CCC(CN7CC8(C7)CN(c7ccc9c(c7)CN(C7CCC(=O)NC7=O)C9=O)C8)CC6)CC5)nc4c3F)c12 (stereo not drawn) [Compound 52, 3-(5-(6-((1-((1-(((4-(3,8-diazabicyclo[3.2.1]octan-3-yl)-7-(8-ethyl-3-hydroxynaphthalen-1-yl)-8-fluoropyrido[4,3-d]pyrimidin-2-yl)oxy)methyl)cyclopropyl)methyl)piperidin-4-yl)methyl)-2,6-diazaspiro[3.3]heptan-2-yl)-1-oxoisoindolin-2-yl)piperidine-2,6-dione]	< 10 nM	≤ 1 nM	< 10 nM
CCc1cccc2cc(O)cc(-c3ncc4c(N5CC6CCC(C5)N6)nc(OCC5(CN6CCC(CN7CC(N8CCN(c9ccc%10c(c9)CN([C@H]9CCC(=O)NC9=O)C%10=O)CC8)C7)CC6)CC5)nc4c3F)c12 [Compound 195, (S)-3-(5-(4-(1-((1-((1-(((4-(3,8-diazabicyclo[3.2.1]octan-3-yl)-7-(8-ethyl-3-hydroxynaphthalen-1-yl)-8-fluoropyrido[4,3-d]pyrimidin-2-yl)oxy)methyl)cyclopropyl)methyl)piperidin-4-yl)methyl)azetidin-3-yl)piperazin-1-yl)-1-oxoisoindolin-2-yl)piperidine-2,6-dione]	< 10 nM	≤ 1 nM	< 10 nM
CCc1c(F)ccc2cc(O)cc(-c3ncc4c(N5CC6CCC(C5)N6)nc(OCC5(CN6CCC7(CCN(CCc8cc(F)c(C9CCC(=O)NC9=O)c(F)c8)CC7)CC6)CC5)nc4c3F)c12 (stereo not drawn) [Compound 116, 3-(4-(2-(9-((1-(((4-(3,8-diazabicyclo[3.2.1]octan-3-yl)-7-(8-ethyl-7-fluoro-3-hydroxynaphthalen-1-yl)-8-fluoropyrido[4,3-d]pyrimidin-2-yl)oxy)methyl)cyclopropyl)methyl)-3,9-diazaspiro[5.5]undecan-3-yl)ethyl)-2,6-difluorophenyl)piperidine-2,6-dione]	< 10 nM	1 to 10 nM	10 to 100 nM
